Assay [1] concerns primary nerve cells of the rat ventral midbrain. Briefly: H2O2-induced cell death in primary nerve cells, MTT assay. To be noted: 1 μM compound for 20 h, then 200 μM H2O2 for 3 h. Format: cell-based. As for the experimental part:
From germinal cells of a rat at 17-19 days pregnant, primary nerve cells of the rat ventral midbrain were prepared. To evaluate presence of dopamine-producing neurons in a cell culture, the cell culture was immunostained with anti-NeuN antibody and anti-TH antibody to identify each of whole neurons and dopamine-producing neurons, and cell nuclei were stained with DAPI.
Therefore, it was clarified that No. 23 provides a resistance against nerve cell death induced by oxidative stress.
A general note: Tetrazolium assays rely on reduction of a dye to a coloured formazan, in cell work by metabolically active cells.

The subject of assay [2] is cerebral stroke model rat. To be noted: in vivo.
Assay [3] concerns mouse injected with 6-OHDA to the unilateral (left) midbrain. Briefly: 6-OHDA Parkinson's disease model, methamphetamine-induced rotational behavior. Format: in vivo. To be noted: administered together with methamphetamine, up to 7 days after administration. As for the experimental part: To evaluate effects of a DJ-1 bound compound on Parkinson's disease in vivo, 6-OHDA was stereotactically injected to the unilateral (left) midbrain of a mouse. Then, the DJ-1 bound compound (No. 23) was administered together with methamphetamine. Here, administration of methamphetamine to an animal induces ipsilateral movement relative to the injection site. Accordingly, by the administration of methamphetamine to a mouse, a rotational behavior is observed.

On to `COc1cc(C(=O)Nc2ccc(-c3cn4cccc(C)c4n3)cc2)cc(OC)c1OC` [No. 23], for which the “cell death caused by hydrogen peroxide in primary nerve cells (FIG. 12)” value in assay [1] is “no cell death was observed”. The “cell death in brain, TTC staining, infarct area and volume (FIGS. 4-7)” value in assay [2] is reported as “significantly suppresses cell death”. In assay [3], the “rotational behavior, number of rotations (FIGS. 15 and 16)” value is given as “significantly suppressed”.
